Source: the supplement of paper PMC10307832

Assays:
Assay in all cases: relative viability (nuclei count vs DMSO), 5 days (fraction); higher = more cells survive
Apatinib + Pictilisib = compound: N#CC1(c2ccc(NC(=O)c3cccnc3NCc3ccncc3)cc2)CCCC1 [Apatinib] + CS(=O)(=O)N1CCN(Cc2cc3nc(-c4cccc5[nH]ncc45)nc(N4CCOCC4)c3s2)CC1 [Pictilisib] (partner 1 µM)
Summary of the method: (§1)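 One day after seeding in 1536-well plates, lung cancer cell lines were dosed by pin tool. Dosing was either single-drug or a fixed anchor-drug dose plus five library-drug doses (not always all listed) in √10 steps. After 5 days, nuclei were stained in one fix-and-stain step and counted on 4× images, and relative viability is the nuclei count of treated wells over that of vehicle wells, given as the median of duplicate plates.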

Metformin + Pemetrexed = compound: CN(C)C(=N)NC(=N)N [Metformin] + Nc1nc2[nH]cc(CCc3ccc(C(=O)N[C@@H](CCC(=O)O)C(=O)O)cc3)c2c(=O)[nH]1 [Pemetrexed] (partner 0.2 µM)
Summary of the method: as §1

Apatinib + Vorinostat = compound: N#CC1(c2ccc(NC(=O)c3cccnc3NCc3ccncc3)cc2)CCCC1 [Apatinib] + O=C(CCCCCCC(=O)Nc1ccccc1)NO [Vorinostat] (partner 1 µM)
Summary of the method: as §1

Metformin + Olaparib = compound: CN(C)C(=N)NC(=N)N [Metformin] + O=C(c1cc(Cc2n[nH]c(=O)c3ccccc23)ccc1F)N1CCN(C(=O)C2CC2)CC1 [Olaparib] (partner 8 µM)
Summary of the method: as §1

Cell Line	relative viability (Apatinib + Pictilisib; first compound 0.08 µM)	relative viability (Apatinib + Pictilisib; first compound 0.253 µM)	relative viability (Apatinib + Pictilisib; first compound 0.8 µM)	relative viability (Apatinib + Pictilisib; first compound 2.53 µM)	relative viability (Apatinib + Pictilisib; first compound 8 µM)	relative viability (Metformin + Pemetrexed; first compound 10 µM)	relative viability (Metformin + Pemetrexed; first compound 31.62 µM)	relative viability (Metformin + Pemetrexed; first compound 100 µM)	relative viability (Metformin + Pemetrexed; first compound 316.23 µM)	relative viability (Metformin + Pemetrexed; first compound 1000 µM)	relative viability (Apatinib + Vorinostat; first compound 0.08 µM)	relative viability (Apatinib + Vorinostat; first compound 0.253 µM)	relative viability (Apatinib + Vorinostat; first compound 0.8 µM)	relative viability (Apatinib + Vorinostat; first compound 2.53 µM)	relative viability (Apatinib + Vorinostat; first compound 8 µM)	relative viability (Metformin + Olaparib; first compound 10 µM)	relative viability (Metformin + Olaparib; first compound 31.62 µM)	relative viability (Metformin + Olaparib; first compound 100 µM)	relative viability (Metformin + Olaparib; first compound 316.23 µM)	relative viability (Metformin + Olaparib; first compound 1000 µM)
PC-14	0.708	0.837	0.39	0.547	0.55	0.167	0.154	0.164	0.14	0.157	0.821	0.755	0.639	0.606	0.547	0.233	0.247	0.259	0.225	0.222
HCC-78	0.299	0.158	0.236	0.221	0.205		0.878	1.15	0.894	0.908	0.524	0.396	0.427	0.402	0.374		1.01	1.07	0.979	0.443
NCI-H322M	0.513	0.488	0.523	0.627	0.528	0.68	0.621	0.644	0.606	0.594	0.846	0.846	0.885	0.897	0.885	0.686	0.695	0.739	0.672	0.654
NCI-H2023	0.269	0.228	0.209	0.209	0.231	0.185	0.219	0.226	0.187	0.205	0.774	0.673	0.811	0.58	0.483	0.332	0.366	0.282	0.344	0.31
NCI-H1651	0.665	0.565	0.494	0.614	0.476	0.445	0.62	0.608	0.53	0.599	0.583	0.522	0.528	0.48	0.577	0.151	0.159	0.144	0.16	0.146
HCC-15	0.77	0.786	0.693	0.706	0.71	0.233	0.21	0.207	0.228	0.22	0.9	0.876	0.871	0.887	0.706	0.532	0.615	0.47	0.571	0.585
NCI-H3122	0.679	0.538	0.684	0.731	0.701	0.178	0.171	0.197	0.184	0.222	0.995	0.968	1.07	0.734	0.895	0.442	0.555	0.587	0.54	0.507
LOU-NH91	0.516	0.56	0.499	0.466	0.522	0.438	0.394	0.409	0.385	0.437	0.974	0.97	0.82	0.816	0.82	0.859	0.894	0.865	0.883	0.845
